Assays:
Assay type in all cases: cell-based, human
WLS-1C and H1 cells = test: Example 11: cloning efficiency with albumins of different suppliers with or without two free fatty acids; details: for cloning efficiency of albumin without the additional two free fatty acids: compared among suppliers' albumins; for cloning efficiency when albumin is provided along with two free fatty acids: versus the same albumin without added fatty acids
H1 and WLS-1C hPSCs = test: Example 12: cloning efficiency with individual free fatty acids in the presence of a carrier; details: 600 μg free fatty acid per gram of carrier spiked into mTeSR1 plus 10 μM Y-27632
Protocol: 12-well culture plates were coated with 0.5 mL of cloning matrix or extracellular matrix (1:25 dilution in […] Dilution Buffer) and placed at room temperature for 1 hour. The matrix was then aspirated and 1 mL of media (mTeSRTM1 or TeSRTM-E8TM supplemented with either 10 μM Y27632 or media comprising lipid-enriched albumin, GABA, pipecolic acid, lithium chloride, FGF, TGFβ and Y-27632 (hereafter termed cloning supplement)) was added to each well and the plate was placed at 37° C. for 1 hour. hPSC lines were dissociated to single cells and seeded into the pre-warmed plates at 25 cells/cm^2 and placed at 37° C. for two days. The cells were then fed with fresh media (mTeSRTM1 or TeSRTM-E8TM supplemented with either 10 μM Y-27632 or cloning supplement) and placed at 37° C. for two days. On day four the cells were then fed with 1 mL of mTeSRTM1 or TeSRTM-E8TM without additives and fed daily until day seven. Cells were then fixed using 4% paraformaldehyde and stained for alkaline phosphatase. Undifferentiated colonies were then counted and cloning efficiency was determined using the following calculation: (Number of undifferentiated colonies at day seven (per well)/Number of cells seeded at day zero (per well))×100. (Error bars represent standard deviation from three biological replicates). In this experiment, 600 μg of the shown free fatty acids were spiked into culture medium (mTeSRTM1 plus 10 μM Y-27632) per gram of carrier also spiked into the culture medium. Cloning efficiencies were calculated as described in Example 1, for example.

[1] = tested on: WLS-1C, H1 and STiPS-F016 cells; test: Example 8: cloning efficiency with lipid poor albumin loaded with one, two or three fatty acids; details: for cloning efficiency in comparison to the 3 fatty acid-loaded albumin: H1, WLS-1C, STiPS-F016, fatty acid loaded on lipid poor albumin at 600 μg per gram, final 6 ng/mL
Protocol: In particular, each of the one or more fatty acids was incubated with albumin at a concentration of 600 μg of each fatty acid per gram of albumin. The product of such incubation was subsequently added to the culture medium at a final concentration of 6 ng/mL.

H1, WLS-1C, and H9 hPSCs = test: Example 13: cloning efficiency with detrimental fatty acids loaded onto a BSA sample; details: 300 μg/g loaded onto a specific BSA sample
Protocol: In the experiment shown in FIG. 13, 300 μg/g of either arachidonic acid or α-linolenic acid were loaded onto a specific BSA sample and added to a culture comprising H1, WLS-1C, and H9 hPSCs.

In the case of “A2: BSA of Supplier A lot 2, already comprising 3000-7000 ug/g overall fatty acid”, the “cloning efficiency of albumin without the additional two free fatty acids” value (WLS-1C and H1 cells) is reported as “lowest cloning efficiencies” and the “cloning efficiency when albumin is provided along with two free fatty acids” value (WLS-1C and H1 cells) is reported as “not enhanced”.

With “A1: BSA of Supplier A lot 1, already comprising 3000-7000 ug/g overall fatty acid” the “cloning efficiency of albumin without the additional two free fatty acids” value (WLS-1C and H1 cells) was “lowest cloning efficiencies” and the “cloning efficiency when albumin is provided along with two free fatty acids” value (WLS-1C and H1 cells) was “not enhanced”.

With `CC(C)CCC[C@@H](C)[C@H]1CC[C@H]2[C@@H]3CC=C4C[C@@H](O)CC[C@]4(C)[C@H]3CC[C@]12C` [cholesterol] the “effect on survival and proliferation (cloning efficiency)” value (“effect on survival and proliferation” for short) (H1 and WLS-1C hPSCs) was “helpful in enhancing the survival and proliferation”.

With `CCCCCCCC/C=C\CCCCCCCC(=O)O` [oleic acid] the “cloning efficiency in comparison to the 3 fatty acid-loaded albumin” value [1] was “comparable cloning efficiencies” and the “effect on survival and proliferation” value (H1 and WLS-1C hPSCs) was “helpful in enhancing the survival and proliferation”.

In the case of `CCCCCCCCCCCCCCCCCC(=O)O` [stearic acid], the “effect on survival and proliferation” value (H1 and WLS-1C hPSCs) is reported as “helpful in enhancing the survival and proliferation”.

With `CC/C=C\C/C=C\C/C=C\CCCCCCCC(=O)O` [α-linolenic acid] the “cloning efficiency of the tested BSA sample” value (H1, WLS-1C, and H9 hPSCs) was “decreased the cloning efficiency” and the “effect on survival and proliferation” value (H1 and WLS-1C hPSCs) was “detrimental”.

With `CCCCC/C=C\C/C=C\C/C=C\C/C=C\CCCC(=O)O` [arachidonic acid] the “cloning efficiency of the tested BSA sample” value (H1, WLS-1C, and H9 hPSCs) was “decreased the cloning efficiency” and the “effect on survival and proliferation” value (H1 and WLS-1C hPSCs) was “detrimental”.

`CCCCC/C=C\C/C=C\CCCCCCCC(=O)O` [linoleic acid] was tested, and the “cloning efficiency relative to control and oleic and/or palmitic acid” value ([1]; WLS-1C and H1, only this fatty acid loaded on albumin at 600 μg per gram) was “reduce cloning efficiency”.

With `CCCCCCCCCCCCCC(=O)O` [myristic acid] the “effect on survival and proliferation” value (H1 and WLS-1C hPSCs) was “helpful in enhancing the survival and proliferation”.

In the case of `CCCCCCCCCCCCCCCC(=O)O` [palmitic acid], the “cloning efficiency in comparison to the 3 fatty acid-loaded albumin” value [1] is reported as “comparable cloning efficiencies” and the “effect on survival and proliferation” value (H1 and WLS-1C hPSCs) is reported as “helpful in enhancing the survival and proliferation”.
